Data on 15 molecules can be found in patent publication US20210317102A1, “INHIBITORS OF INTEGRATED STRESS RESPONSE PATHWAY” (Praxis Biotech LLC, priority 2019, published 2021).

Experiment [1] concerns ATF4 expression, HEK293T cells carrying the ATF4 luciferase reporter. In words: ATF4 expression inhibition assay (ATF4 luciferase reporter). Format: cell-based. The following applies: Homo sapiens, HEK-293T, 100 nM thapsigargin, 3 hours. On the procedure: The ATF4 reporter was prepared by fusing the human full length 5′UTR of ATF4 (NCBI Accession No. BC022088.2) upstream of the firefly luciferase coding sequence lacking the initiator methionine. The fused sequence was cloned into pLenti-EFla-C-Myc-DDK-IRES-Puro cloning vector (Origen #PS100085) using standard methods. Virus production was carried out by using Lenti-X™ Packaging Single Shots Protocol (Clonetech #631276). Viral particles were used to transduce HEK293T cells (ATCC #CRL-3216, ATCC Manassas, Va.), which were subsequently selected with puromycin to generate stable cell line. Cells were maintained at 37° C. and 5% CO2 in DMEM-F12 (Hyclone #SH30023.02) supplemented with 10% heat-inactivated fetal bovine serum (Gibco #16000-044), 2 mM L-glutamine (Gibco #25030-081), 100 U/ml penicillin, and 100 μg/ml streptomycin (Gibco #^15140-122).
HEK293T cells carrying the ATF4 luciferase reporter were plated on 96-well plates (Nunc) at 10,000 cells per well. Cells were treated two days after seeding with 100 nM thapsigargin (Tg) (Sigma-Aldrich #T9033) in the presence of different concentrations of selected compounds ranging from 1 nM to 10 μM. Cells without treatment or cells treated with Tg alone were used as controls. Assay plates containing cells were incubated for 3 hours at 37° C.
Luciferase reactions were performed using Luciferase Assay System (Promega #E1501) as specified by the manufacturer. Luminescence was read with an integration time of 1 s and a gain of 110 using a Cytation-5 multi-mode microplate reader (BioTek). Relative luminescence units were normalized to Tg treatment (0% inhibition) and untreated cells (100% inhibition) and the percentage of ATF4 inhibition was calculated.
Accordingly, inhibition of ATF4 expression as a result of the test compound indicates suppression of the ISR pathway.
(In general: Reporter assays use an easily measured gene product as a stand-in for the process of interest.)

Experiment [2] has as its system Chinese hamster ovary (CHO) cells. In words: Protein synthesis assay (puromycin incorporation, western blot). Format: cell-based. The following applies: 2 hours, media alone = 100%; for activity at 1 µM: Cricetulus griseus, unstressed CHO cells (without Tg), 1 μM test compound, read-out: % Protein synthesis relative to untreated (1 μM test compound); for % Recovery of protein synthesis (1 μM test compound): stressed CHO cells, 300 nM Tg plus 1 μM test compound, Tg alone = 0%. On the procedure: Chinese hamster ovary (CHO) cells were maintained at 37° C. and 5% CO2 in Dulbecco's Modified Eagle's Media (DMEM) supplemented with 10% fetal bovine serum, 2 mM L-glutamine, 100 U/ml penicillin, and 100 μg/ml streptomycin. After reaching 80% of confluence, cells were detached and seeded on 6 well plates in complete media, allowed to recover overnight and treated for 2 hours with 1 μM of the test compound (to assess protein synthesis levels in unstressed condition), or for 2 hours with 300 nM Tg in the presence of 1 μM of the test compound (to assess the recovery of protein synthesis in a stressed condition). Cells with Tg alone were used as controls.
After the 2 hours treatments, media were replaced by adding 10 μg/ml puromycin (Sigma Aldrich #P8833) in complete media for 30 min. Media were removed and cells were lysed with SDS-PAGE lysis buffer. Lysates were transferred to 1.5 ml tubes and sonicated for 3 min and total protein amount were quantified using BCA Protein Assay Kit (Pierce). Equal amount of protein (30 μg) was loaded on SDS-PAGE gels. Proteins were transferred onto […] PVDF membranes (BioRad) and probed with primary antibodies diluted in Tris-buffered saline supplemented with 0.1% Tween 20 (Merck #S6996184 505) and 3% bovine serum albumin (Rockland #BSA-50).
Puromycin (12D10) (Merck #MABE343) and j-actin (Sigma Aldrich #A5441) antibodies were used as primary antibody. A HRP-conjugated secondary antibody (Rockland) was employed to detect immune-reactive bands using enhanced chemiluminescence (ECL Western Blotting Substrate, Pierce). Quantification of protein bands was done by densitometry using ImageJ software.
Percent increase of protein synthesis in unstressed cells (without Tg treatment) in the presence of media alone or certain test compounds is shown in Table 3. The percentage levels were normalized to the media alone condition, which correspond to 100% protein synthesis.
Percent recovery of protein synthesis in stressed cells (with Tg treatment) due to the test compounds at 1 μM is also shown in Table 3. The levels were normalized to the media alone and Tg alone conditions, which correspond to 100% and 0% respectively.
Background: Immunoblotting shows a protein as a band on a membrane.

For orientation: IC50 means the concentration at which inhibition is half-maximal. Read a low IC50 as greater potency.

In experiment [1], `CN1C[C@H](C(=O)N[C@H]2CC[C@H](NC(=O)COc3ccc(Cl)cc3)CC2)Oc2ccc(Cl)cc21` [Compound 85, trans-(R)-6-chloro-N-(4-(2-(4-chlorophenoxy)acetamido)cyclohexyl)-4-methyl-3,4-dihydro-2H-benzo[b][1,4]oxazine-2-carboxamide] returned a half-inhibitory concentration (IC50) of 44 nM. In experiment [2], the activity at 1 µM is 124% and the “% Recovery of protein synthesis (1 μM test compound)” value (“% Recovery of protein synthesis” below) came out at 31.6%.
In experiment [1], `CN1C[C@@H](C(=O)N[C@H]2CC[C@H](NC(=O)COc3ccc(Cl)cc3)CC2)Oc2ccc(Cl)cc21` [Compound 86, trans-(S)-6-chloro-N-(4-(2-(4-chlorophenoxy)acetamido)cyclohexyl)-4-methyl-3,4-dihydro-2H-benzo[b][1,4]oxazine-2-carboxamide] had an IC50 of 12.3 nM. Also, in experiment [2], the activity at 1 µM was determined as 125% and the “% Recovery of protein synthesis” value was determined as 108.1%.
Molecule `CCN1CC(C(=O)N[C@H]2CC[C@H](NC(=O)COc3ccc(Cl)cc3)CC2)Oc2ccc(Cl)cc21` (stereo partly drawn) [Compound 87, trans-6-chloro-N-(4-(2-(4-chlorophenoxy)acetamido)cyclohexyl)-4-ethyl-3,4-dihydro-2H-benzo[b][1,4]oxazine-2-carboxamide] gave a half-inhibitory concentration (IC50) in experiment [1] of 90.2 nM. Further, in experiment [2], the activity at 1 µM amounted to 147% and the “% Recovery of protein synthesis” value is 71.8%.
Molecule `CCN1C[C@H](C(=O)N[C@H]2CC[C@H](NC(=O)COc3ccc(Cl)cc3)CC2)Oc2ccc(Cl)cc21` [Compound 88, trans-(R)-6-chloro-N-(4-(2-(4-chlorophenoxy)acetamido)cyclohexyl)-4-ethyl-3,4-dihydro-2H-benzo[b][1,4]oxazine-2-carboxamide] yielded an IC50 in experiment [1] of over 1000 nM. In experiment [2], the activity at 1 µM is 105% and the “% Recovery of protein synthesis” value was 28.6%.
The matching figures for `CCN1C[C@@H](C(=O)N[C@H]2CC[C@H](NC(=O)COc3ccc(Cl)cc3)CC2)Oc2ccc(Cl)cc21` [Compound 89, trans-(S)-6-chloro-N-(4-(2-(4-chlorophenoxy)acetamido)cyclohexyl)-4-ethyl-3,4-dihydro-2H-benzo[b] [1,4]oxazine-2-carboxamide]: under 1000 nM, 134% and 21.5%.
On to `COc1cc(Cl)ccc1OCC(=O)N[C@H]1CC[C@H](NC(=O)COc2ccc(Cl)cc2)CC1` [Compound 90, trans-2-(4-chloro-2-methoxyphenoxy)-N-(4-(2-(4-chlorophenoxy)acetamido)cyclohexyl)acetamide], for which the half-maximal inhibitory concentration (IC50) in experiment [1] turned out to be 61.5 nM. Besides, the activity at 1 µM in experiment [2] is 116%.
In experiment [1], `Cc1cc(Cl)ccc1OCC(=O)N[C@H]1CC[C@H](NC(=O)COc2ccc(Cl)cc2)CC1` [Compound 91, trans-2-(4-chloro-2-methylphenoxy)-N-(4-(2-(4-chlorophenoxy)acetamido)cyclohexyl)acetamide] yielded an IC50 of 28.7 nM. Also, the activity at 1 µM in experiment [2] was determined as 94.8%.
In experiment [1], `NC(=O)c1cc(Cl)ccc1OCC(=O)N[C@H]1CC[C@H](NC(=O)COc2ccc(Cl)cc2)CC1` [Compound 92] returned a half-maximal inhibitory concentration (IC50) of 52.2 nM. Further, the activity at 1 µM in experiment [2] was determined as 79.7%.
In the case of `O=C(NC[C@H]1CC[C@H](NC(=O)COc2ccc(Cl)cc2)CC1)Nc1ccc(Cl)cc1` [Compound 93, trans-2-(4-chlorophenoxy)-N-(4-((3-(4-chlorophenyl)ureido)methyl)cyclohexyl)acetamide], in experiment [1], 3.88 nM corresponded to half-maximal inhibition (IC50). Moreover, in experiment [2], the activity at 1 µM amounted to 88% and the “% Recovery of protein synthesis” value stood at 69.1%.
In experiment [1], `O=C(COc1ccc(Cl)cc1)N[C@H]1CC[C@H](NC(=O)C2CNc3ccc(Cl)cc3O2)CC1` (stereo partly drawn) [Compound 94, trans-7-chloro-N-(4-(2-(4-chlorophenoxy)acetamido)cyclohexyl)-3,4-dihydro-2H-benzo[b] [1,4]oxazine-2-carboxamide] yielded an IC50 of 35.8 nM. Further, in experiment [2], the activity at 1 µM was 103% and the “% Recovery of protein synthesis” value was 58.4%.
For the molecule `O=C(COc1ccc(Cl)c(F)c1)NN1CCC(CNC(=O)c2cc3cc(Cl)ccc3o2)CC1` [Compound 95, 5-chloro-N-((1-(2-(4-chloro-3-fluorophenoxy)acetamido)piperidin-4-yl)methyl)benzofuran-2-carboxamide], inhibition in experiment [1] was half-maximal at 2.9 nM (IC50). In experiment [2], the activity at 1 µM is 191% and the “% Recovery of protein synthesis” value is given as 133.4%.
In turn, `O=C(NN1CCC(CNC(=O)c2cc3cc(Cl)ccc3o2)CC1)c1ccc2cc(Cl)ccc2n1` [Compound 96, 6-chloro-N-(4-((5-chlorobenzofuran-2-carboxamido)methyl)piperidin-1-yl)quinoline-2-carboxamide] displayed a 50% inhibitory concentration (IC50) in experiment [1] of 1.05 nM. The activity at 1 µM in experiment [2] was 258%.
Regarding `O=C(NCC1CCN(NC(=O)c2cc3cc(Cl)ccc3o2)CC1)c1cc2cc(Cl)ccc2o1` [Compound 97, 5-chloro-N-(4-((5-chlorobenzofuran-2-carboxamido)methyl)piperidin-1-yl)benzofuran-2-carboxamide], the midpoint of inhibition in experiment [1], the IC50, lay at 0.59 nM. Also, in experiment [2], the activity at 1 µM was determined as 211% and the “% Recovery of protein synthesis” value is recorded as 249.6%.
`O=C(COc1ccc(Cl)c(F)c1)NN1CCC(CNC(=O)c2ccc(Cl)cn2)CC1` [Compound 98, 5-chloro-N-((1-(2-(4-chloro-3-fluorophenoxy)acetamido)piperidin-4-yl)methyl)picolinamide] showed an IC50 in experiment [1] of 30.4 nM. Further, in experiment [2], the activity at 1 µM was -24.9% and the “% Recovery of protein synthesis” value came to 124.5%.
`O=C(COc1ccc(Cl)cc1)NN1CCC(CNC(=O)Nc2ccc(Cl)cc2)CC1` [Compound 99, 2-(4-chlorophenoxy)-N-(4-((3-(4-chlorophenyl)ureido)methyl)piperidin-1-yl)acetamide] returned an IC50 in experiment [1] of 14.5 nM. Besides, in experiment [2], the activity at 1 µM was -42% and the “% Recovery of protein synthesis” value was found to be 122.3%.
